In patent US20140221354A1, “IMIDAZO [1,2-a]PYRIDINE COMPOUNDS FOR USE IN THERAPY” (EMBLEM Technology Transfer GmbH, priority 2011, published 2014):

test system: CellSensor® HRE-bla HCT-116 stably transfected reporter cell line; assay: HIF/HRE reporter assay; assay type: cell-based; conditions: Homo sapiens, inhibition of activated HIF signaling response, hypoxic conditions induced with deferoxamine (DFO), 24 h incubation, blue/green emission ratio, read-out: Evaluation
Experimental: Inhibition of an activated HIF signaling response under chemically-induced hypoxic conditions due to compound treatment was determined using the CellSensor® HRE-bla HCT-116 stably transfected reporter cell line from Invitrogen according to the manufacturer's instructions.
Cells were maintained as described previously and seeded into 384-well, clear-bottom plates (Corning 3712) at 15000 cells/well in 32 μl assay medium (Opti-MEM [Invitrogen], 0.5% FBS, 100 U/ml penicillin, 100 μg/ml streptomycin, 0.1 mM non-essential amino acids [NEAA], 1 mM sodium pyruvate, 5 mM HEPES [pH 7.3]). Following a 2 h incubation period, compounds (4 μl) were subsequently added to the cells at 10× concentrations in 5% DMSO and incubated under normal conditions for 30 min. To induce hypoxic conditions, 4 μl of a 2 mM deferoxamine (DFO) solution was added to the cells followed by 24 h incubation under standard assay conditions (as described). Control wells included wells containing only medium (no cells) and wells treated with 0.5% DMSO instead of compound.
Prior to the readout, the Substrate Loading Solution was prepared as described in the manufacturer's protocol and 10 μl added to each well. Following a further 2 h incubation period at room temperature and in the dark, fluorescence was measured at two wavelengths (blue channel: ex. 409 nm, em. 460 nm; green channel: ex. 409 nm, em. 530 nm) on a PerkinElmer Envision HTS. For the analysis, the average signal of the cell-free wells at 460 nm and 530 nm was first subtracted from the blue and green channel data, respectively. The blue/green emission ratios were then calculated for each well, dividing the background-corrected blue emission values by the background-corrected green emission values. […] values were determined from these ratios using GraphPad Prism (Prism 5, GraphPad software, Inc.).

SMILES	EC50 [µM]
N#Cc1cccc(-c2nc3ccc(-c4ccccc4)cn3c2CN2CCCNCC2)c1 [Example 22, 3-(3-((1,4-diazepan-1-yl)methyl)-6-phenylimidazo[1,2-a]pyridin-2-yl)benzonitrile]	< 0.5
O=[N+]([O-])c1ccc(-c2nc3ccc(-c4ccccc4)cn3c2CN2CCCNCC2)cc1 [Example 4, 3-((1,4-diazepan-1-yl)methyl)-2-(4-nitrophenyl)-6-phenylimidazo[1,2-a]pyridine]	< 0.5
CN1CCCN(Cc2c(-c3ccc(Cl)cc3)nc3ccc(-c4ccccc4)cn23)CC1 [Example 31, 2-(4-chlorophenyl)-3-((4-methyl-1,4-diazepan-1-yl)methyl)-6-phenylimidazo[1,2-a]pyridine]	< 0.5
Cc1ccc(-c2nc3ccc(-c4ccccc4)cn3c2CN2CCCNCC2)cc1 [Example 17, 3-((1,4-diazepan-1-yl)methyl)-6-phenyl-2-(p-tolyl)imidazo[1,2-a]pyridine]	< 0.5
N#Cc1ccc(-c2nc3ccc(-c4ccsc4)cn3c2CN2CCCNCC2)cc1 [Example 44, 4-(3-((1,4-diazepan-1-yl)methyl)-6-(thiophen-3-yl)imidazo[1,2-a]pyridin-2-yl)benzonitrile]	< 0.5
c1ccc(-c2ccc3nc(-c4ccncc4)c(CN4CCCNCC4)n3c2)cc1 [Example 11, 3-((1,4-diazepan-1-yl)methyl)-6-phenyl-2-(pyridin-4-yl)imidazo[1,2-a]pyridine]	< 0.5
CC(=O)N1CCN(Cc2c(-c3ccc([N+](=O)[O-])cc3)nc3ccc(-c4ccccc4)cn23)CC1 [Example 3, 1-(4-((2-(4-nitrophenyl)-6-phenylimidazo[1,2-a]pyridin-3-yl)methyl)piperazin-1-yl)ethanone]	0.5 to 1
N#Cc1ccc(-c2ccc3nc(-c4ccc(C#N)cc4)c(CN4CCCNCC4)n3c2)cc1 [Example 43, 4,4′-(3-((1,4-diazepan-1-yl)methyl)imidazo[1,2-a]pyridine-2,6-diyl)dibenzonitrile]	< 0.5
Cn1cccc1-c1ccc2nc(-c3ccc(C#N)cc3)c(CN3CCCNCC3)n2c1 [Example 38, 4-(3-((1,4-diazepan-1-yl)methyl)-6-(1-methyl-1H-pyrrol-2-yl)imidazo[1,2-a]pyridin-2-yl)benzonitrile]	0.5 to 1
c1ccc(-c2ccc3nc(-c4cccnc4)c(CN4CCCNCC4)n3c2)cc1 [Example 15, 3-((1,4-diazepan-1-yl)methyl)-6-phenyl-2-(pyridin-3-yl)imidazo[1,2-a]pyridine]	< 0.5
CC(=O)N1CCN(Cc2c(-c3cccc([N+](=O)[O-])c3)nc3ccc(-c4ccccc4)cn23)CC1 [Example 2, 1-(4-((2-(3-nitrophenyl)-6-phenylimidazo[1,2-a]pyridin-3-yl)methyl)piperazin-1-yl)ethanone]	> 1
N#Cc1ccc(-c2nc3ccc(-c4ccc(C(N)=O)cc4)cn3c2CN2CCCNCC2)cc1 [Example 42, 4-(3-((1,4-diazepan-1-yl)methyl)-2-(4-cyanophenyl)imidazo[1,2-a]pyridin-6-yl)benzamide]	> 1
Cc1ccc(-c2ccc3nc(-c4ccc(C#N)cc4)c(CN4CCCNCC4)n3c2)cc1 [Example 23, 4-(3-((1,4-diazepan-1-yl)methyl)-6-(p-tolyl)imidazo[1,2-a]pyridin-2-yl)benzonitrile]	< 0.5
N#Cc1ccc(-c2nc3ccc(-c4ccccc4)cn3c2CN2CCNC(=O)C2)s1 [Example 35, 5-(3-((3-oxopiperazin-1-yl)methyl)-6-phenylimidazo[1,2-a]pyridin-2-yl)thiophene-2-carbonitrile]	> 1
N#Cc1ccc(-c2nc3ccc(-c4ccccc4)cn3c2CN2CCCNCC2)s1 [Example 21, 5-(3-((1,4-diazepan-1-yl)methyl)-6-phenylimidazo[1,2-a]pyridin-2-yl)thiophene-2-carbonitrile]	< 0.5
Cc1cc(-c2ccc3nc(-c4ccc(C#N)cc4)c(CN4CCCNCC4)n3c2)ccn1 [Example 28, 4-(3-((1,4-diazepan-1-yl)methyl)-6-(2-methylpyridin-4-yl)imidazo[1,2-a]pyridin-2-yl)benzonitrile]	0.5 to 1
N#Cc1csc(-c2nc3ccc(-c4ccccc4)cn3c2CN2CCCNCC2)c1 [Example 20, 5-(3-((1,4-diazepan-1-yl)methyl)-6-phenylimidazo[1,2-a]pyridin-2-yl)thiophene-3-carbonitrile]	< 0.5
N#Cc1ccc(-c2nc3ccc(-c4ccccc4)cn3c2CN2CCCNCC2)cc1 [Example 9, 4-(3-((1,4-diazepan-1-yl)methyl)-6-phenylimidazo[1,2-a]pyridin-2-yl)benzonitrile]	< 0.5
O=C1CN(Cc2c(-c3ccc(Cl)cc3)nc3ccc(-c4ccccc4)cn23)CCN1 [Example 32, 4-((2-(4-chlorophenyl)-6-phenylimidazo[1,2-a]pyridin-3-yl)methyl)piperazin-2-one]	> 1
c1ccc(-c2ccc3nc(-c4ccccc4)c(CN4CCCNCC4)n3c2)cc1 [Example 19, 3-((1,4-diazepan-1-yl)methyl)-2,6-diphenylimidazo[1,2-a]pyridine]	0.5 to 1
COc1ccc(-c2nc3ccc(-c4ccccc4)cn3c2CN2CCNC(=O)C2)cc1 [Example 30, 4-((2-(4-methoxyphenyl)-6-phenylimidazo[1,2-a]pyridin-3-yl)methyl)piperazin-2-one]	> 1
N#Cc1ccc(-c2nc3ccc(-c4cn[nH]c4)cn3c2CN2CCCNCC2)cc1 [Example 37, 4-(3-((1,4-diazepan-1-yl)methyl)-6-(1H-pyrazol-4-yl)imidazo[1,2-a]pyridin-2-yl)benzonitrile]	> 1
COc1ccc(-c2ccc3nc(-c4ccc(C#N)cc4)c(CN4CCCNCC4)n3c2)cc1 [Example 41, 4-(3-((1,4-diazepan-1-yl)methyl)-6-(4-methoxyphenyl)imidazo[1,2-a]pyridin-2-yl)benzonitrile]	< 0.5
N#Cc1ccc(-c2nc3ccc(-c4ccc(Cl)cc4)cn3c2CN2CCCNCC2)cc1 [Example 40, 4-(3-((1,4-diazepan-1-yl)methyl)-6-(4-chlorophenyl)imidazo[1,2-a]pyridin-2-yl)benzonitrile]	< 0.5
O=C1CN(Cc2c(-c3ccc([N+](=O)[O-])cc3)nc3ccc(-c4ccccc4)cn23)CCN1 [Example 13, 4-((2-(4-nitrophenyl)-6-phenylimidazo[1,2-a]pyridin-3-yl)methyl)piperazin-2-one]	< 0.5
N#Cc1ccc(-c2nc3ccc(-c4ccccc4)cn3c2CN2CCNC(=O)C2)cc1 [Example 33, 4-(3-((3-oxopiperazin-1-yl)methyl)-6-phenylimidazo[1,2-a]pyridin-2-yl)benzonitrile]	> 1
CN1CCCN(Cc2c(-c3ccc([N+](=O)[O-])cc3)nc3ccc(-c4ccccc4)cn23)CC1 [Example 12, 3-((4-methyl-1,4-diazepan-1-yl)methyl)-2-(4-nitrophenyl)-6-phenylimidazo[1,2-a]pyridine]	< 0.5
Clc1ccc(-c2nc3ccc(-c4ccccc4)cn3c2CN2CCCNCC2)cc1 [Example 14, 3-((1,4-diazepan-1-yl)methyl)-2-(4-chlorophenyl)-6-phenylimidazo[1,2-a]pyridine]	< 0.5
CN1CCCN(Cc2c(-c3ccc(C#N)cc3)nc3ccc(-c4ccccc4)cn23)CC1 [Example 34, 4-(3-((4-methyl-1,4-diazepan-1-yl)methyl)-6-phenylimidazo[1,2-a]pyridin-2-yl)benzonitrile]	< 0.5
